Source: patent publication US9522873B2, “Biphenyl derivative, pharmaceutically acceptable salt thereof, and methods for preventing or treating inflammatory diseases or autoimmune diseases” (Dongguk University Industry-Academic Cooperation Foundation, priority 2011, dated 2016)

Legend:
Format in all cases: in vivo
[1] = test system: anti-inflammatory protein IkB (inhibitory kappa B); assay: TPA-induced ear edema mouse model: immunohistochemical staining of ear tissue for IkB; settings: ear tissue of TPA-treated ICR mice, 24 hours after TPA, FIG. 8
Method: (§1) The following experiment was performed using tetradecanoyl phorbol acetate (TPA)-induced ear edema (inflammation) mouse models to analyze the anti-inflammatory activity of the novel biphenyl compounds obtained in Example 1. The TPA-induced ear edema mouse model has been widely used to investigate the mechanism of the inflammatory response and the effects of inhibitory substances (Agents and Actions. 1989. 26; 335-341). More specifically, 6-week-old ICR male mice were prepared, and each 20 μl of a TPA solution dissolved in acetone at a concentration of 125 μg/ml was applied to the left ears of mice. After 1 hour of the TPA application, each 20 μl of the solvent or compound 6 (0.3% and 1%) prepared in Example 1 and dissolved in the solvent was applied to the left ears of mice and reapplied after 6 hours of the TPA application. Indomethacin, an anti-inflammatory agent, was applied to the positive control group. Each predetermined area of the left ears of mice was harvested after 24 hours of the TPA application. The weight of each of the left ears of mice was measured, and H&E staining and immunohistochemical staining were performed on ear tissues.

[2] = test system: TPA-induced ear edema (inflammation) mouse models; assay: TPA-induced ear edema (inflammation) mouse model: ear weight and H&E staining; settings: ICR male mice, 20 μl of 0.3% and 1% applied to left ear 1 hour and 6 hours after TPA, harvested after 24 hours
Method: as §1

[3] = test system: inflammation-related protein p65; assay: TPA-induced ear edema mouse model: immunohistochemical staining of ear tissue for p65; settings: ear tissue of TPA-treated ICR mice, 24 hours after TPA, FIG. 7
Method: as §1

## CCCCC(=O)N(Cc1ccc(-c2ccccc2C(=O)N2CCN(C)CC2)cc1)c1ccccc1 [compound 4, N-[(2′-(4-methylpiperazine-1-carbonyl)biphenyl-4-yl)methyl]-N-phenylpentanamide]
[1]
  expression of anti-inflammatory protein IkB (inhibitory kappa B): increased
[2]; FIG. 5
  inflammation and edema induced by TPA (ear weight): inhibited
[2]; FIG. 6
  ear tissues thickened by the edema induced by TPA (H&E staining): recovered to normal level
[3]
  expression of inflammation-related protein p65: decreased
